SMILES strings stand for the structures.

Among the data in ChEMBL document CHEMBL3792289, “Design, synthesis and biological evaluation of bisabolangelone oxime derivatives as potassium-competitive acid blockers (P-CABs)” (Bioorg Med Chem Lett, 2016) are pIC50 and IC50 values, retold here.

A short description of the first test: Inhibition of pig gastric H+/K+-ATPase in stomach ion leaky membrane vesicle assessed as reduction in monophosphate production after 30 mins by microplate reader analysis in presence of valinomycin. The format is cell membranes, Sus scrofa.
For `CC(C)C/C=C1\O[C@H]2C[C@@H](C)C/C(=N\O)[C@H]2[C@@]1(C)O`, the pIC50 was found to be 5.54.
The same measure, in the same setting: then `CC(C)CCC1O[C@H]2C[C@@H](C)C/C(=N\O)[C@H]2[C@@]1(C)O` (some centres undefined), with 5.3; and `CCOC(=O)CO/N=C1\C[C@H](C)C[C@@H]2O/C(=C\CC(C)C)[C@](C)(O)[C@H]12`, with 6.07; and `C#CCO/N=C1\C[C@H](C)C[C@@H]2O/C(=C\CC(C)C)[C@](C)(O)[C@H]12`, with 6.36.
Still for that read-out and setting: then `CC(C)C/C=C1\O[C@H]2C[C@@H](C)C/C(=N\OCc3ccccc3)[C@H]2[C@@]1(C)O`, with 6.25.
As for `Cc1nc(Nc2ccc(F)cc2)nc(N2CCc3ccccc3C2C)c1C` (centres undefined) [REVAPRAZAN], the IC50 is 0.95 µM.
Regarding `CC(C)C/C=C1\O[C@H]2C[C@@H](C)C/C(=N\OC(=O)Nc3ccccc3)[C@H]2[C@@]1(C)O`, the pIC50 was 6.
The same measure, in the same setting: the result for `CCCCO/N=C1\C[C@H](C)C[C@@H]2O/C(=C\CC(C)C)[C@](C)(O)[C@H]12` reads 5.94.

Another test in a line: Inhibition of gastric H+/K+-ATPase in Kunming mouse stomach parietal cells. The format is tissue-based.
As for `CC(C)C/C=C1\O[C@H]2C[C@@H](C)CC(=O)[C@H]2[C@@]1(C)O`, the IC50 stood at 23.2 µM.

As a reminder, the pIC50 is −log10 of the IC50, conventionally taken in molar units. What is called IC50 is the point on the concentration scale where inhibition reaches its midpoint.
